# Columns and labels:
# [1] = test system: c-Myc; assay: qRT-PCR quantification of c-Myc expression in cancer stem cells; type: cell-based, human; settings: 10 μM niclosamide, DMSO base-line; U87-MG (CSC), DU-145 (CSC), MCF-7 (CSC)
# Procedure: (§1) FIG. 28A-B: qRT-PCR quantification of c-Myc and BCL-2 expression in U87-MG(CSC) cells treated with DMSA or 10 μM niclosamide. For calculations: DMSO served as base-line in FIG. 28A. Mock-transfection served as base-line in FIG. 28B. Dotted line marks 1.5 fold change in y-axis, considered the benchmark for statistical significance.
# as §1, with “29A-B:” for “28A-B:”, “DU-145 (CSC)” for “U87-MG(CSC)”, “29A.” for “28A.”, “29B.” for “28B.”
# as §1, with “30A-B.” for “28A-B:”, “DU-145 (CSC)” for “U87-MG(CSC)”, “30A.” for “28A.”, “30B.” for “28B.”
# (§2) U87-MG (CSC) were used to validate the NF-kB pathway. Cells were lysed using RIPA lysis buffer and 35 mcg cell lysate protein (determined by BCA assay) was loaded per well. […] The expression of c-Myc in the cells as measured by Western Blot was normalized. […] RNA levels were measured by qPRC using gene-specific Taqman probes for c-Myc and BCL-2. […]
# [2] = test system: reactive oxygen species (ROS); settings: mechanism shown in FIG. 25; cited from earlier work
# [3] = test system: BCL-2; assay: qRT-PCR quantification of BCL-2 expression in cancer stem cells; type: cell-based, human; settings: 10 μM niclosamide, DMSO base-line; U87-MG (CSC), DU-145 (CSC), MCF-7 (CSC)
# Procedure: as §1
# as §1, with “29A-B:” for “28A-B:”, “DU-145 (CSC)” for “U87-MG(CSC)”, “29A.” for “28A.”, “29B.” for “28B.”
# as §1, with “30A-B.” for “28A-B:”, “DU-145 (CSC)” for “U87-MG(CSC)”, “30A.” for “28A.”, “30B.” for “28B.”
# as §2
compound,measurement,setting,value
O=C(Nc1ccc([N+](=O)[O-])cc1Cl)c1cc(Cl)ccc1O [niclosamide],c-Myc expression,[1],significantly down-regulated
same,intracellular ROS content,[2],elevates
same,BCL-2 expression,[3],significantly down-regulated

# — US20220228126A1, “USE OF PCBP1 TO GENERATE INDUCED PLURIPOTENT STEM CELLS WHILE INHIBITING ONCOGENESIS” (priority 2019, published 2022)
